Laboratory results: BigSolDB 2.1

CN1CCN(C(=O)O[C@H]2c3nccnc3C(=O)N2c2ccc(Cl)cn2)CC1
solubility (mole fraction)
Conditions | 288.15 K | 293.15 K | 298.15 K | 303.15 K | 308.15 K | 313.15 K | 318.15 K | 323.15 K | 328.15 K
in acetone | 0.0013 | 0.00153 | 0.0019 | 0.00229 | 0.00269 | 0.00318 | 0.0037 | – | –
in ethanol | 0.00023 | 0.000282 | 0.00036 | 0.000431 | 0.000526 | 0.000672 | 0.000851 | 0.000996 | 0.0012
in isopropyl acetate | 0.000682 | 0.000796 | 0.000964 | 0.0012 | 0.0014 | 0.00163 | 0.00182 | 0.00203 | 0.00226
in methyl acetate | 0.00187 | 0.00217 | 0.0025 | 0.00303 | 0.00356 | 0.00414 | 0.00484 | – | –
in n-propanol | 0.00013 | 0.000172 | 0.000215 | 0.000292 | 0.000382 | 0.000493 | 0.00059 | 0.00079 | 0.00101
in n-propyl acetate | 0.000851 | 0.00102 | 0.00124 | 0.00153 | 0.00183 | 0.00208 | 0.00239 | 0.0027 | 0.00303
